One series is described as follows: Toxicity test (LD50). The following applies: mouse, in vivo; oral, observed for 1 week; parentheses show 95% confidence limits. How it is done: Each of the test compounds was suspended in a physiological saline solution having dissolved therein 2% of Tween 80, and orally administered through a tube to groups of ddY mice (male: 19 to 22 g) each group consisting of 6 mice. The mice were then observed for 1 week. The LD50 values were calculated from the lethality in accordance with the method of Litchfield-Wilcoxon.

The test system of series [1] is writhings (acetic acid) in the mice. In words: Analgesic activity: acetic acid writhing test. Format: in vivo, male mice (ddY). The following applies: Mus musculus, po, read-out: ED50 (analgesic, writhing inhibition). How it is done:
Male mice (ddY) weighing 18 to 22 g were used in groups each consisting of 10 mice. Each of the compounds was suspended in an aqueous solution of 0.5% of carboxymethyl cellulose and 2.0% of Tween 80, and administered orally through a tube. After one hour from the administration, 0.6% acetic acid was administered intraperitoneally in an amount of 0.1 ml per 10 g of body weight, and the number of writhings which occurred in the mice during a period of 20 minutes after the administration was measured. The percent inhibition was calculated from the following equation, and the ED50 values of the test compounds were calculated from the percent inhibition in accordance with the method of Litchfield-Wilcoxon.
In general terms: In writhing tests, fewer writhes than in controls are read as antinociception.

The next series concerns stomach mucosal membrane. In words: Ulcerogenic activity: gastric ulceration. Format: in vivo, male Wistar rats. The following applies: p.o., 4 h. The procedure: Each of the test compounds was orally administered by the same way as in the test on anti-inflammatory activity to male Wistar rats weighing 120 to 150 g which had been fasted for 24 hours. Four hours later, they were killed with ether.

The test system of series [2] is left hind paw edema (carrageenin). In words: Anti-inflammatory activity: carrageenin-induced left hind paw edema. Format: in vivo, male Wistar rats. The following applies: Rattus norvegicus, po, read-out: Percent inhibition (edema). How it is done:
Male Wistar rats weighing 120 to 150 g which had been fasted for 24 hours were used in groups each consisting of 5 rats. In each group, the volumes of the left hind paw were measured by a volume differential meter (made by Ugo Basile Company), and each of the test compounds was suspended in an aqueous solution of 0.5% of carboxymethyl cellulose and 2.0% of Tween 80, and administered orally through a tube. After one hour from the administration, 0.1 ml of a 1% suspension of carrageenin in distilled water was subcutaneously injected into the plantar tissues of the left hind paw. Three hours later, the volumes of the left hind paw were again measured. The increase in volume of the left hind paw of each rat in each group (the volume of edema) was measured.

The subject of a further series is digestive organs. The following applies: known agents, statement in words; cited from earlier work.
The mark [3] stands for this setting: p.o. 1 h before 0.6% acetic acid i.p., parentheses show 95% confidence limits.
[4] abbreviates: 1 mg/kg, p.o., 1 h before carrageenin, measured 3 h later.
The mark [5] stands for this setting: 3 mg/kg, p.o., 1 h before carrageenin, measured 3 h later.
The mark [6] stands for this setting: 10 mg/kg, p.o., 1 h before carrageenin, measured 3 h later.
Setting [7] is: p.o., 1 h before carrageenin, measured 3 h later.

Read-outs that look alike come from different tables or passages of the source. Bounds are passed on as bounds.

The values that follow come from patent US4337256A, “1-Phenyl isoquinoline-5-acetic acid compounds and analgesic compositions thereof” (priority 1978, dated 1982).

Regarding `O=C(O)Cc1cccc2c(-c3ccc(Br)cc3)nccc12` [B, 1-(4-bromophenyl)isoquinoline-5-acetic acid], the LD50 at 168 h in the series “Toxicity test (LD50)” is 182 mg/kg. In addition, the ED50 in series [1] (setting [3]) is 1 mg/kg. Also, in the series on stomach mucosal membrane (10 mg/kg), the “Gastric ulceration: bleeding at the mucosal membrane” value (“Gastric ulceration: bleeding” for short) is 0/5 and the “Gastric ulceration: damage beneath the mucosal membrane” value is reported as 0/5. Further, in the series on stomach mucosal membrane (30 mg/kg), the “Gastric ulceration: bleeding” value is recorded as 2/5 and the “Gastric ulceration: damage beneath the mucosal membrane” value was 4/5. Also, the inhibition in vivo at 0.3 mg/kg in series [2] (0.3 mg/kg, p.o., 1 h before carrageenin, measured 3 h later) is 26.8 ± 5.3%. Also, the inhibition in vivo at 1 mg/kg in series [2] (setting [4]) came to 33.7 ± 6.1%. Besides, the inhibition in vivo at 3 mg/kg in series [2] (setting [5]) came to 48.2 ± 4.4%.

Turning to `O=C(O)Cc1cccc2c(-c3ccccc3)nccc12` [H, 1-phenylisoquinoline-5-acetic acid], the LD50 at 168 h in “Toxicity test (LD50)” is over 300 mg/kg. Also, the ED50 in series [1] (setting [3]) was 4.1 mg/kg. Further, in the series with stomach mucosal membrane (10 mg/kg), the “Gastric ulceration: bleeding” value was 1/15 and the “Gastric ulceration: damage beneath the mucosal membrane” value was 1/15. Further, in the series on stomach mucosal membrane (30 mg/kg), the “Gastric ulceration: bleeding” value is listed as 4/20 and the “Gastric ulceration: damage beneath the mucosal membrane” value was 2/20. Besides, the inhibition in vivo at 3 mg/kg in series [2] (setting [5]) stood at 21.8 ± 4.5%. For the same compound, the inhibition in vivo at 10 mg/kg in series [2] (setting [6]) came to 31 ± 5.2%. Moreover, in series [2] (setting [7]), the inhibition in vivo at 30 mg/kg worked out at 46.4 ± 7.7%.

On to `O=C(O)Cc1cccc2c(-c3ccc(C(F)(F)F)cc3)nccc12` [I, 1-(4-trifluoromethylphenyl)isoquinoline-5-acetic acid], for which the inhibition in vivo at 3 mg/kg in series [2] (setting [5]) amounted to 17 ± 4.5%. Also, the inhibition in vivo at 10 mg/kg in series [2] (setting [6]) turned out to be 24.5 ± 7.1%. Moreover, the inhibition in vivo at 30 mg/kg in series [2] (setting [7]) is 30.2 ± 5.3%.

As for `CN(C)c1ccc(-c2nccc3c(CC(=O)O)cccc23)cc1` [D, 1-(4-dimethylaminophenyl)isoquinoline-5-acetic acid], the LD50 at 168 h in the series “Toxicity test (LD50)” is over 300 mg/kg. Further, the ED50 in series [1] (setting [3]) amounted to 0.11 mg/kg. Also, in the series on stomach mucosal membrane (10 mg/kg), the “Gastric ulceration: bleeding” value was 0/6 and the “Gastric ulceration: damage beneath the mucosal membrane” value is reported as 0/6. In the series on stomach mucosal membrane (30 mg/kg), the “Gastric ulceration: bleeding” value is 3/6 and the “Gastric ulceration: damage beneath the mucosal membrane” value is 3/6. Besides, the inhibition in vivo at 1 mg/kg in series [2] (setting [4]) was determined as 16.3 ± 7.1%. For the same compound, the inhibition in vivo at 3 mg/kg in series [2] (setting [5]) worked out at 34.2 ± 5.6%. For the same compound, the inhibition in vivo at 10 mg/kg in series [2] (setting [6]) is 42.1 ± 5.3%.

On to `Cc1ccc(-c2nccc3c(CC(=O)O)cccc23)cc1` [Compound E, 1-(4-methylphenyl)isoquinoline-5-acetic acid], for which the 50% lethal dose (LD50) at 168 h in the series “Toxicity test (LD50)” was over 300 mg/kg. In series [1] (setting [3]), the 50% effective dose (ED50) was 4.3 mg/kg. In the series with stomach mucosal membrane (10 mg/kg), the “Gastric ulceration: bleeding” value is recorded as 0/5 and the “Gastric ulceration: damage beneath the mucosal membrane” value is given as 0/5. Moreover, in the series on stomach mucosal membrane (30 mg/kg), the “Gastric ulceration: bleeding” value was 0/5 and the “Gastric ulceration: damage beneath the mucosal membrane” value is recorded as 4/5. For the same compound, in series [2] (setting [5]), the inhibition in vivo at 3 mg/kg turned out to be 26.9 ± 5.2%. Further, the inhibition in vivo at 10 mg/kg in series [2] (setting [6]) came to 49.5 ± 5.1%.

For `COc1ccc(-c2nccc3c(CC(=O)O)cccc23)cc1` [G, 1-(4-methoxyphenyl)isoquinoline-5-acetic acid], the LD50 at 168 h in “Toxicity test (LD50)” was over 300 mg/kg. Besides, the ED50 in series [1] (setting [3]) was found to be 9.2 mg/kg. In the series on stomach mucosal membrane (30 mg/kg), the “Gastric ulceration: bleeding” value is 0/5 and the “Gastric ulceration: damage beneath the mucosal membrane” value is recorded as 0/5. The inhibition in vivo at 1 mg/kg in series [2] (setting [4]) is 13.1 ± 9.1%. The inhibition in vivo at 3 mg/kg in series [2] (setting [5]) was 32.3 ± 6.3%. The inhibition in vivo at 10 mg/kg in series [2] (setting [6]) was 41.2 ± 7.2%.

Take `CCC(C)c1nccc2c(CC(=O)O)cccc12` (centres unmarked) [P, 1-sec-butylisoquinoline-5-acetic acid]: in series [2] (setting [5]), the inhibition in vivo at 3 mg/kg worked out at 15.9 ± 10.4%. In addition, in series [2] (setting [6]), the inhibition in vivo at 10 mg/kg is 39.6 ± 7%.

Regarding `CC(C(=O)O)c1cccc2c(-c3ccc(Cl)cc3)nccc12` (centres unmarked) [F, 2-[1-(4-chlorophenyl)isoquinolin-5-yl]propionic acid], the ED50 in series [1] (setting [3]) amounted to 3.2 mg/kg. Besides, in the series on stomach mucosal membrane (10 mg/kg), the “Gastric ulceration: bleeding” value is given as 1/5 and the “Gastric ulceration: damage beneath the mucosal membrane” value was 0/5. In the series on stomach mucosal membrane (30 mg/kg), the “Gastric ulceration: bleeding” value is 2/5 and the “Gastric ulceration: damage beneath the mucosal membrane” value is 2/5. For the same compound, in series [2] (setting [4]), the inhibition in vivo at 1 mg/kg is 27.3 ± 6.3%. Moreover, in series [2] (setting [5]), the inhibition in vivo at 3 mg/kg is 33.1 ± 4.8%. In addition, the inhibition in vivo at 10 mg/kg in series [2] (setting [6]) is 39.7 ± 5.1%.

As for `O=C(O)Cc1cccc2c(C3CCCC3)nccc12` [N, 1-cyclopentylisoquinoline-5-acetic acid], in series [2] (setting [5]), the inhibition in vivo at 3 mg/kg was determined as 21.9 ± 8.1%. Moreover, the inhibition in vivo at 10 mg/kg in series [2] (setting [6]) is 24.8 ± 4.9%.

Turning to `NC(=O)Cc1cccc2c(-c3ccccc3)nccc12` [K, 1-phenylisoquinoline-5-acetamide], in series [2] (setting [6]), the inhibition in vivo at 10 mg/kg turned out to be 9 ± 6.4%. Moreover, the inhibition in vivo at 30 mg/kg in series [2] (setting [7]) was determined as 39.7 ± 5.8%.

Regarding `COc1ccc2c(c1)c(CC(=O)O)c(C)n2C(=O)c1ccc(Cl)cc1` [Indomethacin, reference compound], the LD50 at 168 h in “Toxicity test (LD50)” came out at 17.3 mg/kg. Also, the “troubles in the digestive organs” value with digestive organs is given as “fairly heavy troubles in the digestive organs”. Moreover, in series [1] (1 h), the ED50 stood at 0.21 mg/kg. In series [2] (3 h), the inhibition in vivo at 1 mg/kg is 15.9 ± 6.2%, the inhibition in vivo at 3 mg/kg stood at 29.8 ± 5.7% and the inhibition in vivo at 10 mg/kg was 40.6 ± 5.1%.

`CCOC(=O)Cc1cccc2c(-c3ccccc3)nccc12` [J, ethyl-1-phenylisoquinoline-5-acetate]: in series [2] (setting [6]), the inhibition in vivo at 10 mg/kg stood at 23.2 ± 6.1%. In series [2] (setting [7]), the inhibition in vivo at 30 mg/kg was found to be 41.1 ± 4.8%.

Consider `O=C(O)Cc1cccc2c(C3CCCCC3)nccc12` [Compound L, 1-cyclohexylisoquinoline-5-acetic acid], for which, in “Toxicity test (LD50)”, the LD50 at 168 h was over 300 mg/kg. Further, the ED50 in series [1] (setting [3]) was found to be 8.5 mg/kg. For the same compound, the figures for the “Gastric ulceration: bleeding” value in the series with stomach mucosal membrane (10 mg/kg) and with stomach mucosal membrane (30 mg/kg) were 0/5 and 3/5, respectively. Also, the results for the “Gastric ulceration: damage beneath the mucosal membrane” value in the series on stomach mucosal membrane (10 mg/kg) and in the series on stomach mucosal membrane (30 mg/kg) were 0/5 and 3/5, respectively. Further, in series [2] (setting [4]), the inhibition in vivo at 1 mg/kg was 9.7 ± 2%. The inhibition in vivo at 3 mg/kg in series [2] (setting [5]) turned out to be 17.4 ± 5.2%. The inhibition in vivo at 10 mg/kg in series [2] (setting [6]) was determined as 43.1 ± 4.3%.

Consider `O=C(O)Cc1cccc2c(-c3ccc(F)cc3)nccc12` [C, 1-(4-fluorophenyl)isoquinoline-5-acetic acid], for which the median lethal dose (LD50) at 168 h in the series “Toxicity test (LD50)” is over 300 mg/kg. In series [1] (setting [3]), the ED50 amounted to 8.8 mg/kg. For the same compound, the inhibition in vivo at 1 mg/kg in series [2] (setting [4]) was found to be 25.6 ± 3.4%. Besides, in series [2] (setting [5]), the inhibition in vivo at 3 mg/kg stood at 28.3 ± 5.8%. The inhibition in vivo at 10 mg/kg in series [2] (setting [6]) was found to be 36.5 ± 4%.

In the case of `CC(C)Cc1nccc2c(CC(=O)O)cccc12` [O, 1-isobutylisoquinoline-5-acetic acid], the inhibition in vivo at 3 mg/kg in series [2] (setting [5]) came out at 21.2 ± 7.8%. In addition, the inhibition in vivo at 10 mg/kg in series [2] (setting [6]) came out at 30.3 ± 5.6%. Moreover, the inhibition in vivo at 30 mg/kg in series [2] (setting [7]) amounted to 42.8 ± 8.8%.

In the case of `CC(C)c1nccc2c(CC(=O)O)cccc12` [M, 1-isopropylisoquinoline-5-acetic acid], in the series “Toxicity test (LD50)”, the LD50 at 168 h amounted to 250 mg/kg. The ED50 in series [1] (setting [3]) was found to be 3.5 mg/kg. For the same compound, the inhibition in vivo at 1 mg/kg in series [2] (setting [4]) is 19.3 ± 2.6%. Moreover, the inhibition in vivo at 3 mg/kg in series [2] (setting [5]) turned out to be 38.6 ± 3.2%. In series [2] (setting [6]), the inhibition in vivo at 10 mg/kg came to 62.9 ± 5.9%.

As usually defined, the LD50 is the dose at which mortality reaches 50%. As a reminder, the ED50 is the dose that gives a 50% effect, or the effect in half of the subjects.
